Patent US10632125B2, “MTH1 inhibitors for treatment of inflammatory and autoimmune conditions” (THOMAS HELLEDAYS STIFTELSE FÖR MEDICINSK FORSKNING, priority 2014, dated 2020)

Target: MTH1 (Homo sapiens, UniProt P36639)
Assay: MTH1 enzymatic assay (malachite green, coupled to pyrophosphatase)
Assay type: biochemical
Settings: dGTP 100 μM, MTH1 6 nM; 96- or 384-well format; read-out: IC50
Description: MTH1 catalyzes the hydrolysis of dGTP to dGMP and PPi. By coupling the reaction to pyrophosphatase added in excess PPi is converted to Pi that can be detected by using the malachite green assay reagent. […] 96-well method: Briefly, the compound to be analyzed is diluted in DMSO in a 1:3 dilution series generating 12 different compound concentrations giving a final DMSO concentration of 1% in the assay well. MTH1 diluted in assay buffer (100 mM Tris-acetate, 40 mM NaCl, 10 mM magnesium acetate, 1 mM DTT and 0.005% Tween 20) fortified with E. coli pyrophosphatase (0.2 U/ml) is added to a final concentration of 6 nM. dGTP diluted in assay buffer is added to a final concentration of 100 μM. The reaction mixture is incubated for 15 minutes at 22° C. To 100 μl reaction mixture, 25 μl Malachite green assay regent (0.095% Malachite green in 17% H2SO4, 1.5% Ammonium molybdate, 0.17% Tween 20) is added, followed by incubation with shaking for 15 minutes at 22° C. The absorbance of the assay plate is read at 630 nm using a Hidex Sense Multilabel plate reader. The IC50 value is determined by fitting a dose response curve to the data points using nonlinear regression analysis and the equation Y=Bottom+(Top-Bottom)/(1+10^((Log IC50−X)*HillSlope)), where Y is the read absorbance at 630 nm and X is log [compound].
384-Well Method: The compounds to be tested are nano-dispensed, in 11 concentrations, directly in assay plates, with a final DMSO concentration <1%. The protocol and the reaction mixture are the same as for the 96-well assay, with a total reaction volume of 50 μl/well to which 10 μl of Malachite green reagent is added. All additions to the assay plates are made with multidrop.

Row | IC50 [nM] | SMILES
1 | < 200 | CNc1cc(-c2ccc(-c3ccccc3)cc2F)nc(N)n1 [Example 50, 6-(2-fluoro-4-phenylphenyl)-4-N-methylpyrimidine-2,4-diamine.]
2 | < 200 | C=CCNc1cc(-c2ccc(Cl)cc2)nc(N)n1 [Example 53, 6-(4-chlorophenyl)-4-N-(prop-2-en-1-yl)pyrimidine-2,4-diamine]
3 | < 200 | Nc1nc(NC2CCC2)cc(-c2ccc(Cl)cc2)n1 [Example 58, 6-(4-chlorophenyl)-4-N-cyclobutylpyrimidine-2,4-diamine]
4 | < 200 | CCCCCNc1cc(-c2cccc(Cl)c2Cl)nc(N)n1 [Example 61, 6-(2,3-dichlorophenyl)-4-N-pentylpyrimidine-2,4-diamine]
5 | < 200 | CC(C)(C)Nc1cc(-c2cccc(Cl)c2Cl)nc(N)n1 [Example 63, 4-N-tert-butyl-6-(2,3-dichlorophenyl)pyrimidine-2,4-diamine]
6 | < 200 | CNc1cc(-c2ccc(Cl)c(Cl)c2)nc(N)n1 [Example 68, 6-(3,4-dichlorophenyl)-4-N-methylpyrimidine-2,4-diamine]
7 | < 200 | CNc1cc(-c2ccc(C(C)(C)C)cc2)nc(N)n1 [Example 69, 6-(4-tert-butylphenyl)-4-N-methylpyrimidine-2,4-diamine]
8 | < 200 | CNc1cc(-c2ccc(C)cc2)nc(N)n1 [Example 70, 4-N-methyl-6-(4-methylphenyl)pyrimidine-2,4-diamine]
9 | < 200 | CNc1cc(-c2ccc(Cl)cc2Cl)nc(N)n1 [Example 71, 6-(2,4-dichlorophenyl)-4-N-methylpyrimidine-2,4-diamine]
10 | < 200 | CNc1cc(-c2ccc(F)cc2F)nc(N)n1 [Example 75, 6-(2,4-difluorophenyl)-4-N-methylpyrimidine-2,4-diamine]
11 | < 200 | CNc1cc(-c2cc(F)ccc2OC)nc(N)n1 [Example 76, 6-(5-fluoro-2-methoxyphenyl)-4-N-methylpyrimidine-2,4-diamine]
12 | < 200 | CNc1cc(-c2ccc(OC)c(F)c2)nc(N)n1 [Example 82, 6-(3-fluoro-4-methoxyphenyl)-4-N-methylpyrimidine-2,4-diamine]
13 | < 200 | CNc1cc(-c2ccc(F)c(F)c2)nc(N)n1 [Example 83, 6-(3,4-difluorophenyl)-4-N-methylpyrimidine-2,4-diamine]
14 | < 200 | CNc1cc(-c2ccc(OC(C)C)cc2)nc(N)n1 [Example 84, 4-N-methyl-6-[4-(propan-2-yloxy)phenyl]pyrimidine-2,4-diamine]
15 | < 200 | CNc1cc(-c2cccc(C)c2C)nc(N)n1 [Example 86, 6-(2,3-dimethylphenyl)-4-N-methylpyrimidine-2,4-diamine]
16 | < 200 | CNc1cc(-c2ccc(Cl)c(F)c2)nc(N)n1 [Example 88, 6-(4-chloro-3-fluorophenyl)-4-N-methylpyrimidine-2,4-diamine]
17 | < 200 | CNc1cc(-c2cccc(C(F)(F)F)c2Cl)nc(N)n1 [Example 91, 6-[2-chloro-3-(trifluoromethyl)phenyl]-4-N-methylpyrimidine-2,4-diamine]
18 | < 200 | CNc1cc(-c2cccc(F)c2Cl)nc(N)n1 [Example 92, 6-(2-chloro-3-fluorophenyl)-4-N-methylpyrimidine-2,4-diamine]
19 | < 200 | CNc1cc(-c2cccc(Cl)c2C)nc(N)n1 [Example 94, 6-(3-chloro-2-methylphenyl)-4-N-methylpyrimidine-2,4-diamine]
20 | < 200 | CNc1cc(-c2cc(OC)cc(Cl)c2Cl)nc(N)n1 [Example 99, 6-(2,3-dichloro-5-methoxyphenyl)-4-N-methylpyrimidine-2,4-diamine]
21 | < 200 | CNc1cc(-c2ccc(O)cc2)nc(N)n1 [Example 100, 4-[2-amino-6-(methylamino)pyrimidin-4-yl]phenol]
22 | < 200 | CNc1cc(-c2ccc(C(=O)N3CCOCC3)c(Cl)c2)nc(N)n1 [Example 104, 6-[3-chloro-4-(morpholine-4-carbonyl)phenyl]-4-N-methylpyrimidine-2,4-diamine]
23 | < 200 | CNc1cc(-c2ccc(/C=C/C(=O)OC)cc2)nc(N)n1 [Example 106, methyl (2E)-3-{4-[2-amino-6-(methylamino)pyrimidin-4-yl]phenyl}prop-2-enoate]

Row | IC50 [nM] | SMILES
24 | < 200 | CNc1cc(-c2cccc(/C=C/C(=O)OC)c2)nc(N)n1 [Example 107, methyl (2E)-3-{3-[2-amino-6-(methylamino)pyrimidin-4-yl]phenyl}prop-2-enoate]
25 | < 200 | CNc1cc(-c2ccc(C(C)=O)cc2)nc(N)n1 [Example 109, 1-(4-(2-Amino-6-(methylamino)pyrimidin-4-yl)phenyl)ethanone]
26 | < 200 | Cc1cccc(-c2cc(NC3CC3)nc(N)n2)c1C [Example 114, 4-N-cyclopropyl-6-(2,3-dimethylphenyl)pyrimidine-2,4-diamine]
27 | < 200 | CNc1cc(-c2c[nH]c3ccccc23)nc(N)n1 [Example 116, 6-(1H-indol-3-yl)-4-N-methylpyrimidine-2,4-diamine]
28 | < 200 | Cc1cccc(-c2cc(NCCc3ccccc3)nc(N)n2)c1C [Example 118, 6-(2,3-dimethylphenyl)-4-N-(2-phenylethyl)pyrimidine-2,4-diamine]
29 | < 200 | Cc1cccc(-c2nc(N)nc3c2CCCN3)c1C [Example 121, 4-(2,3-dimethylphenyl)-5H,6H,7H,8H-pyrido[2,3-d]pyrimidin-2-amine]
30 | < 200 | Nc1nc2c(c(-c3cccc(Cl)c3Cl)n1)CCCN2 [Example 122, 4-(2,3-dichlorophenyl)-5H,6H,7H,8H-pyrido[2,3-d]pyrimidin-2-amine]
31 | < 200 | Nc1nc2c(c(-c3cn(S(=O)(=O)c4ccccc4)c4ccccc34)n1)CCCN2 [Example 123, 4-[1-(benzenesulfonyl)-1H-indol-3-yl]-5H,6H,7H,8H-pyrido[2,3-d]pyrimidin-2-amine]
32 | < 200 | CNc1cc(-c2cc(F)cc(F)c2)nc(N)n1 [Example 124, 6-(3,5-difluorophenyl)-4-N-methylpyrimidine-2,4-diamine]
33 | < 200 | COc1ccc(CCNc2cc(-c3cccc(C)c3C)nc(N)n2)cc1 [Example 125, 6-(2,3-dimethylphenyl)-4-N-[2-(4-methoxyphenyl)ethyl]pyrimidine-2,4-diamine]
34 | < 200 | Cc1cccc(-c2cc(NCCc3ccc(Cl)cc3)nc(N)n2)c1C [Example 128, 4-N-[2-(4-chlorophenyl)ethyl]-6-(2,3-dimethylphenyl)pyrimidine-2,4-diamine]
35 | < 200 | Cc1cccc(-c2cc(NCC(C)c3ccccc3)nc(N)n2)c1C (stereo not shown) [Example 130, 6-(2,3-dimethylphenyl)-4-N-(2-phenylpropyl)pyrimidine-2,4-diamine]
36 | < 200 | Cc1cccc(-c2cc(NCCNc3ccccc3)nc(N)n2)c1C [Example 133, 6-(2,3-dimethylphenyl)-4-N-[2-(phenylamino)ethyl]pyrimidine-2,4-diamine]
37 | < 200 | Cc1cccc(-c2cc(NCCc3c[nH]c4ccccc34)nc(N)n2)c1C [Example 134, 6-(2,3-dimethylphenyl)-4-N-[2-(1H-indol-3-yl)ethyl]pyrimidine-2,4-diamine]
38 | < 200 | Cc1cccc(-c2cc(NCCN3CCNC3=O)nc(N)n2)c1C [Example 136, 1-(2-{[2-amino-6-(2,3-dimethylphenyl)pyrimidin-4-yl]amino}ethyl)imidazolidin-2-one]
39 | < 200 | Cc1cccc(-c2cc(NCCCN3CCCC3=O)nc(N)n2)c1C [Example 137, 1-(3-{[2-amino-6-(2,3-dimethylphenyl)pyrimidin-4-yl]amino}propyl)pyrrolidin-2-one]
40 | < 200 | CNc1cc(-c2cc(C)c(O)c(C)c2)nc(N)n1 [Example 138, 4-[2-amino-6-(methylamino)pyrimidin-4-yl]-2,6-dimethylphenol]
41 | < 200 | CNc1cc(-c2ccc(O)c(OC)c2)nc(N)n1 [Example 139, 4-[2-amino-6-(methylamino)pyrimidin-4-yl]-2-methoxyphenol]
42 | < 200 | CNc1cc(-c2ccc(O)c(F)c2)nc(N)n1 [Example 140, 4-[2-amino-6-(methylamino)pyrimidin-4-yl]-2-fluorophenol]
43 | < 200 | CNc1cc(-c2ccccc2C)nc(N)n1 [Example 143, 4-N-methyl-6-(2-methylphenyl)pyrimidine-2,4-diamine]
44 | < 200 | CNc1cc(-c2ccc3[nH]ncc3c2C)nc(N)n1 [Example 145, 4-N-methyl-6-(4-methyl-1H-indazol-5-yl)pyrimidine-2,4-diamine]
45 | < 200 | CNc1cc(-c2cccc(C)c2)nc(N)n1 [Example 147, 4-N-methyl-6-(3-methylphenyl)pyrimidine-2,4-diamine]
46 | < 200 | Cc1ccc(S(=O)(=O)n2cc(-c3cc(NC4CCC4)nc(N)n3)c3ccccc32)cc1 [Example 152, 4-N-cyclobutyl-6-[1-(4-methylbenzenesulfonyl)-1H-indol-3-yl]pyrimidine-2,4-diamine]
